This is an account of results in patent US9879050B2, “Substituted urea depsipeptide analogs as activators of the CLPP endopeptidase” (priority 2013, dated 2018).

One series has as its target T1, S. aureus ClpP (Sa-ClpP) (Staphylococcus aureus, UniProt Q2G036).
T1 construct: made in house; host or cells: E. coli BL21 (DE3)
The series is described as follows: ClpP activation, casein-BODIPY digestion assay (first described method). The format is biochemical. The settings on record: first described ClpP activation assay (**); 10 μM saClpP, 25 μg/ml BODIPY FL casein, 37° C.; read-out: ClpP Activation EC50. As to the method:
The compounds were assayed in a casein digestion assay in order to determine their effect on ClpP activation. Briefly, the assay was carried out using S. aureus ClpP (“Sa-ClpP”) overexpressed in E. coli BL21 (DE3) and purified in a two-step process. Purity of the protein was assessed through SDS PAGE analysis. EC50 evaluations were conducted in triplicate in a 20 μl assay format using a method adapted from Maurizi et al. (Methods Enzymol. (1994) 244:314-331.). Each well contained 10 μM saClpP, 25 μg/ml BODIPY FL casein (Invitrogen Corporation, San Diego, Calif.), and test compound in concentrations ranging between 0-100 μM in assay buffer (50 mM Tris pH 8, 200 mM KCl, and 1 mM TCEP). The reaction took place at 37° C. Fluorescence (excitation 485 nm; emission 528 nm) was measured in five minute intervals over a 45 min period using a BioTek HT fluorescence microplate reader (BioTek Instruments, Inc., Winooski, Vt.). Velocity of each reaction was calculated and data was fit to a dose response curve using GraphPad Prism® software (GraphPad Software, Inc., La Jolla, Calif.). EC50 is the effective concentration of compound which causes 50% activation of S. aureus ClpP in the foregoing BODIPY FL casein assay.

A further series has as its target T2, Sa-ClpP (Staphylococcus aureus, UniProt Q2G036).
T2 construct: made in house; host or cells: E. coli BL21 (DE3)
The series is described as follows: ADEP displacement fluorescence polarization assay. The settings on record: 1 μM Sa-ClpP, 50 nM FP probe ADEP 2591; read-out: ADEP Displacement IC50. The format is binding, S. aureus. The gist of the method:
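Displacement of TAMRA-labelled ADEP 2591 probe (50 nM) from 1 μM Sa-ClpP, pre-equilibrated 1 h in Tris·HCl pH 8.0 with 2% DMSO, then 120 min at room temperature with compound, triplicate. Polarization (mP) read ex 530/em 579 nm, normalised to 20 μM ADEP 2378 and DMSO controls; four-parameter fit.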

Series [1] can be described thus: Cytotoxicity assay, CellTiter-Glo cell viability. The settings on record: African green monkey; Vero cells, 72 hours; read-out: Cytotoxicity IC50. The format is cell-based. The gist of the method: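 Vero cells seeded overnight at 37 °C in DMEM with 10% FBS, then exposed to serial dilutions of compound for 72 h. Viability read by CellTiter-Glo luminescence; IC50 from duplicates, given as the range of two independent experiments.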

For a further series, the system named is S. pyogenes ATCC 700294. The series is described as follows: Minimal inhibitory concentration, microbroth dilution. The format is cell-based. Summed up: (§1)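 Twofold serial dilutions in broth per CLSI M7-A7 microbroth dilution, incubated aerobically overnight at 37° C. MIC read visually as lowest concentration preventing bacterial growth.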
Another series has as its system B. subtilis ATCC 23857. The description is as above. It counts as cell-based. Summed up: (§2)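 MIC is recorded by eye as the lowest drug concentration that stops bacterial growth. Compound is serially diluted twofold in broth, starting at 200 μM final, and bacteria are added at roughly 10^5 cfu/mL. Incubation runs overnight at 37 °C under aerobic conditions, per CLSI guidance.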

The subject of another series is E. coli K12ΔtolC. The description is as above. It counts as cell-based. Summed up: as §2
Another series has as its system E. faecails ATCC 33186. Described as above. It counts as cell-based. To be noted: Enterococcus faecalis, ATCC33186, read-out: Minimal Inhibitory Concentration E. faecails ATCC 33186. The gist of the method: as §2
A further series deals with S. aureus ATCC 29213. The series is described as above. The format is cell-based. Summed up: as §2
Another series concerns S. pneumoniae DAW27. The series is described as above. It counts as cell-based. The settings on record: Streptococcus pneumoniae, DAW27, read-out: Minimal Inhibitory Concentration S. pneumoniae DAW27. The gist of the method:
as §2

For a further series, the system named is S. aureus USA 300 ΔClpP. Described as above. It counts as cell-based, Staphylococcus aureus. To be noted: ClpP inactivated strain. Summed up:
as §2

In another series the test system is S. pneumoniae R6. The series is described as above. The settings on record: Streptococcus pneumoniae, R6; read-out: Minimal Inhibitory Concentration S. pneumoniae R6. The format is cell-based. The gist of the method:
as §1

The subject of the next series is S. aureus NRS70. Described as above. It counts as cell-based. To be noted: Staphylococcus aureus, NRS70; read-out: Minimal Inhibitory Concentration S. aureus NRS70. The gist of the method: as §2
A further series concerns S. aureus USA 300. Described as above. It counts as cell-based. To be noted: Staphylococcus aureus, USA300; read-out: Minimal Inhibitory Concentration S. aureus USA 300. Summed up: as §2
Where [2] appears, read: Streptococcus pyogenes, ATCC700294; read-out: Minimal Inhibitory Concentration S. pyogenes ATCC 700294.
The mark [3] stands for this setting: Bacillus subtilis, ATCC23857; read-out: Minimal Inhibitory Concentration B. subtilis ATCC 23857.
The mark [4] stands for this setting: Staphylococcus aureus, ATCC29213; read-out: Minimal Inhibitory Concentration S. aureus ATCC 29213.

The structures appear in SMILES notation. Converted amounts (≈) assume the structure as drawn. Like-named read-outs stand apart in the source and are kept apart here. Some results are limits rather than exact numbers.

T2 sequence (Q2G036 whole entry): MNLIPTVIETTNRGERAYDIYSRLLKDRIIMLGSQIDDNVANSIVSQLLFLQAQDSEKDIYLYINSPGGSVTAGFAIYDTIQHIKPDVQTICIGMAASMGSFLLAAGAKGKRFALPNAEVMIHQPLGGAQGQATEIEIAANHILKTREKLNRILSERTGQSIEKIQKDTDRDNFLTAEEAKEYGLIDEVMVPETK
T1 sequence (Q2G036 whole entry): as above

Take `C[C@@H]1C[C@H]2C(=O)OC[C@H](NC(=O)[C@H](Cc3ccccc3)NC(=O)Nc3ccccc3)C(=O)N3CCC[C@H]3C(=O)N3CCCC[C@H]3C(=O)N[C@@H](C)C(=O)N2C1` [Compound 1, (S)—N-((2R,6S,8aS,14aS,20S,23aS)-2,6-Dimethyl-5,8,14,19,23-Pentaoxooctadecahydro-1H,5H,14H,19H-Pyrido[2,1-I]Dipyrrolo[2,1-C:2′,1′-L][1]Oxa[4,7,10,13]Tetraazacyclohexadecin-20-Yl)-3-Phenyl-2-(3-Phenylureido)Propanamide]: at S. aureus ClpP (Sa-ClpP), the half-maximal effective concentration (EC50) came to 3.6 ± 0.4 µM. For the same molecule, on Sa-ClpP, the IC50 came out at 6.72 ± 0.4 µM. Besides, the IC50 at 72 h in [1] is greater than 100 µM. The MIC in the series on S. pyogenes ATCC 700294 (Streptococcus pyogenes, ATCC700294, read-out: Minimal Inhibitory Concentration S. pyogenes ATCC 700294) turned out to be 1.56 µM (≈ 1.16 µg/mL); in the series on B. subtilis ATCC 23857 (Bacillus subtilis, ATCC23857, read-out: Minimal Inhibitory Concentration B. subtilis ATCC 23857) it was 1.56 µM (≈ 1.16 µg/mL); in the series on E. faecails ATCC 33186, 3.13 µM (≈ 2.33 µg/mL); with S. aureus ATCC 29213 (Staphylococcus aureus, ATCC29213, read-out: Minimal Inhibitory Concentration S. aureus ATCC 29213) it was 6.25 µM (≈ 4.65 µg/mL); in the series with S. pneumoniae DAW27, 0.78 µM (≈ 0.58 µg/mL). Further, in the series on E. coli K12ΔtolC, the “Minimal Inhibitory Concentration E. coli K12ΔtolC” value was found to be 200 µM.

In the case of `CCc1ccc(NC(=O)N[C@@H](Cc2cc(F)cc(F)c2)C(=O)N[C@@H]2C(=O)N3CCCC3C(=O)N(C)[C@@H]([C@H](C)O)C(=O)N[C@@H](C)C(=O)N3C[C@@H](C)CC3C(=O)O[C@H]2C)cc1` (stereo partly drawn) [Compound 37, (S)-3-(3,5-Difluorophenyl)-2-(3-(4-Ethylphenyl)Ureido)-N-((2S,6S,9S,11aS,17S,18S,20aS)-9-((S)-1-Hydroxyethyl)-2,6,10,18-Tetramethyl-5,8,11,16,20-Pentaoxohexadecahydro-1H,5H,16H-Dipyrrolo[2,1-C:2′,1′-L][1]Oxa[4,7,10,13]Tetraazacyclohexadecin-17-Yl)Propanamide], in the series on S. aureus USA 300 ΔClpP, the “Minimal Inhibitory Concentration S. aureus USA 300 ΔClpP” value amounted to 100 µM. Moreover, the MIC is 0.024 µM (≈ 0.0198 µg/mL) in the series on S. pneumoniae R6; 0.1 µM (≈ 0.0826 µg/mL) with S. pyogenes ATCC 700294 (setting [2]); 0.05 µM (≈ 0.0413 µg/mL) in the series on B. subtilis ATCC 23857 (setting [3]); 0.1 µM (≈ 0.0826 µg/mL) in the series with S. aureus ATCC 29213 (setting [4]); 0.1 µM (≈ 0.0826 µg/mL) in the series on S. aureus NRS70; 0.1 µM (≈ 0.0826 µg/mL) in the series on S. aureus USA 300.

Turning to `C[C@H]1CC2C(=O)O[C@@H](C)[C@H](NC(=O)[C@H](Cc3cc(F)cc(F)c3)NC(=O)Nc3ccc(OC(F)(F)F)cc3)C(=O)N3CCCC3C(=O)N(C)[C@@H]([C@H](C)O)C(=O)N[C@@H](C)C(=O)N2C1` (stereo partly drawn) [Compound 36, (S)-3-(3,5-Difluorophenyl)-N-((2S,6S,9S,11aS,17S,18S,20aS)-9-((S)-1-Hydroxyethyl)-2,6,10,18-Tetramethyl-5,8,11,16,20-Pentaoxohexadecahydro-1H,5H,16H-Dipyrrolo[2,1-C:2′,1′-L][1]Oxa[4,7,10,13]Tetraazacyclohexadecin-17-Yl)-2-(3-(4-(Trifluoromethoxy)Phenyl)Ureido)Propanamide], the “Minimal Inhibitory Concentration S. aureus USA 300 ΔClpP” value with S. aureus USA 300 ΔClpP was 50 µM. In addition, the MIC turned out to be 0.024 µM (≈ 0.0212 µg/mL) in the series with S. pneumoniae R6; 0.2 µM (≈ 0.176 µg/mL) in the series on S. pyogenes ATCC 700294 (setting [2]); 0.1 µM (≈ 0.0882 µg/mL) in the series with B. subtilis ATCC 23857 (setting [3]); 0.1 µM (≈ 0.0882 µg/mL) in the series with S. aureus ATCC 29213 (setting [4]); 0.05 µM (≈ 0.0441 µg/mL) in the series with S. aureus NRS70; 0.1 µM (≈ 0.0882 µg/mL) in the series with S. aureus USA 300.

In the case of `C[C@@H]1CC2C(=O)O[C@@H](C)[C@H](NC(=O)[C@H](Cc3cc(F)cc(F)c3)NC(=O)Nc3ccc(OC(F)(F)F)cc3)C(=O)N3CCCC3C(=O)N(C)[C@@H]([C@H](C)O)C(=O)N[C@@H](C)C(=O)N2C1` (stereo partly drawn) [Compound 41, (S)-3-(3,5-Difluorophenyl)-N-((2R,6S,9S,11aS,17S,18S,20aS)-9-((S)-1-Hydroxyethyl)-2,6,10,18-Tetramethyl-5,8,11,16,20-Pentaoxohexadecahydro-1H,5H,16H-Dipyrrolo[2,1-C:2′,1′-L][1]Oxa[4,7,10,13]Tetraazacyclohexadecin-17-Yl)-2-(3-(4-(Trifluoromethoxy)Phenyl)Ureido)Propanamide], in the series with S. aureus USA 300 ΔClpP, the “Minimal Inhibitory Concentration S. aureus USA 300 ΔClpP” value was found to be 50 µM. In addition, the MIC worked out at 0.02 µM (≈ 0.0176 µg/mL) in the series with S. pneumoniae R6; 0.1 µM (≈ 0.0882 µg/mL) in the series with S. pyogenes ATCC 700294 (setting [2]); 0.01 µM (≈ 0.00882 µg/mL) with B. subtilis ATCC 23857 (setting [3]); 0.02 µM (≈ 0.0176 µg/mL) with S. aureus ATCC 29213 (setting [4]); 0.01 µM (≈ 0.00882 µg/mL) in the series on S. aureus NRS70; 0.02 µM (≈ 0.0176 µg/mL) in the series on S. aureus USA 300.
